Measured values taken from patent US12030878B2 (BRISTOL-MYERS SQUIBB COMPANY, priority 2017, dated 2024).

Key:
Format in all cases: cell-based
human TLR8 = target: T1, human TLR8 (Homo sapiens, UniProt Q9NR97); experiment: TLR8 inhibition reporter assay (HEK-Blue SEAP); conditions: HEK-Blue cells overexpressing human TLR8, stimulated with R848 15.9 μM, 22 hour incubation
T1 construct: host or cells: HEK-Blue cells
T1 sequence (Q9NR97 27-1041): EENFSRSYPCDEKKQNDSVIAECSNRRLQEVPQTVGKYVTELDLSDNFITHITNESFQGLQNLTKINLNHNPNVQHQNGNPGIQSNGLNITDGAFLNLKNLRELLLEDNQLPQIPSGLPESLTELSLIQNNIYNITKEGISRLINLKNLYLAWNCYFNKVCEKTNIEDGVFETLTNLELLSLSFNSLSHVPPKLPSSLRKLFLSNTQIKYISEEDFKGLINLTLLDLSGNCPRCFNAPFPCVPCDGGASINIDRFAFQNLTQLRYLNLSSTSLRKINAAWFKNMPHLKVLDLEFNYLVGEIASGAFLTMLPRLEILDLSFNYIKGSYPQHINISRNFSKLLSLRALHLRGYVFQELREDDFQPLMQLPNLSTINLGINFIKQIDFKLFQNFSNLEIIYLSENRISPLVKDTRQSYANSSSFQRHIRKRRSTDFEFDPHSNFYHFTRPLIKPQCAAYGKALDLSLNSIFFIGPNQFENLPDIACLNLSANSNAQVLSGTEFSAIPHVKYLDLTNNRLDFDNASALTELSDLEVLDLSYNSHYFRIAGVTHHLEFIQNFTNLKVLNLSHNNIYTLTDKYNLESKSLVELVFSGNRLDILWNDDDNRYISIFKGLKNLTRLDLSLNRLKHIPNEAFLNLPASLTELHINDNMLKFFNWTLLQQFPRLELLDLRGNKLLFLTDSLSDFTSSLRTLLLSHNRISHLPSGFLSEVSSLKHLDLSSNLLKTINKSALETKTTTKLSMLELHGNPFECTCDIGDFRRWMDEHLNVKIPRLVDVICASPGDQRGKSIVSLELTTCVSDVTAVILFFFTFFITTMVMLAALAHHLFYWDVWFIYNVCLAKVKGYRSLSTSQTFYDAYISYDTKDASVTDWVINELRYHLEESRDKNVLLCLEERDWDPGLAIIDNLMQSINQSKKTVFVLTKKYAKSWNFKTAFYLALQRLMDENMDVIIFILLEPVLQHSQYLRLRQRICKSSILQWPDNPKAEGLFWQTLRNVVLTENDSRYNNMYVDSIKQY
In short: (§1)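 SEAP read-out via HEK-Blue Detection medium after 22 h at 37 °C; percent inhibition relative to agonist-plus-DMSO and known-inhibitor wells. Agonists: TLR7 gardiquimod 7.5 μM, TLR8 R848 15.9 μM, TLR9 ODN2006 5 nM. Dose range 0.05 nM–50 μM, 30 min compound pre-treatment at RT.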

human TLR7 = target: T2, human TLR7 (Homo sapiens, UniProt Q9NYK1); experiment: TLR7 inhibition reporter assay (HEK-Blue SEAP); conditions: HEK-Blue cells overexpressing human TLR7, stimulated with gardiquimod 7.5 μM, 22 hour incubation
T2 construct: host or cells: HEK-Blue cells
T2 sequence (Q9NYK1 27-1049): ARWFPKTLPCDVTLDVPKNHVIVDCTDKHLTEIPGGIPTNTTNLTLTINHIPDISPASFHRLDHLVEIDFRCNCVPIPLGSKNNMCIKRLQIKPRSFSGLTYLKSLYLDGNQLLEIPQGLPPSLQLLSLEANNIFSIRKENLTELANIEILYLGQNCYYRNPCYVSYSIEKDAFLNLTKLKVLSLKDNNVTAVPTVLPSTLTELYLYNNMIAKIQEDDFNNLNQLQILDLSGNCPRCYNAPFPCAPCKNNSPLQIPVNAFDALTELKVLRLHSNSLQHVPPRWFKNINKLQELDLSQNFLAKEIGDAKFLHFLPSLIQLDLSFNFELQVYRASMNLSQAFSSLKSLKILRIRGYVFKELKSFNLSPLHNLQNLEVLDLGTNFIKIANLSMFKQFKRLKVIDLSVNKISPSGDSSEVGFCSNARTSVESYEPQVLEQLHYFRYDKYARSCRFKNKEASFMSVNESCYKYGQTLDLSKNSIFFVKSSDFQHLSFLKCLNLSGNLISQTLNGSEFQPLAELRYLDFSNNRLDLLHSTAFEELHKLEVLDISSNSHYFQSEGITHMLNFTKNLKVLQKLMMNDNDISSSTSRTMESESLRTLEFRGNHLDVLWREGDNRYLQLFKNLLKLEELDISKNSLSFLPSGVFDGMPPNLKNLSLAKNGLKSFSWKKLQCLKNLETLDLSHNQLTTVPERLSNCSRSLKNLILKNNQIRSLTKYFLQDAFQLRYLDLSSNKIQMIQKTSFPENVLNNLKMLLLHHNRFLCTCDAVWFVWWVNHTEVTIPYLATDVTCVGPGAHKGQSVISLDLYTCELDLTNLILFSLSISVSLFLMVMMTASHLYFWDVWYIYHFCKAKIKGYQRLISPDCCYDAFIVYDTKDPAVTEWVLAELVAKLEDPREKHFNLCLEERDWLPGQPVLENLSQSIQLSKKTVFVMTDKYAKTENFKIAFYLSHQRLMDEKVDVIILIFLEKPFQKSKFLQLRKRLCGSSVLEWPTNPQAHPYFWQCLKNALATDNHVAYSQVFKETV
In short: as §1

human TLR9 = target: T3, human TLR9 (Homo sapiens, UniProt Q9NR96); experiment: TLR9 inhibition reporter assay (HEK-Blue SEAP); conditions: HEK-Blue cells overexpressing human TLR9, stimulated with ODN2006 5 nM, 22 hour incubation
T3 construct: host or cells: HEK-Blue cells
T3 sequence (Q9NR96 26-1032): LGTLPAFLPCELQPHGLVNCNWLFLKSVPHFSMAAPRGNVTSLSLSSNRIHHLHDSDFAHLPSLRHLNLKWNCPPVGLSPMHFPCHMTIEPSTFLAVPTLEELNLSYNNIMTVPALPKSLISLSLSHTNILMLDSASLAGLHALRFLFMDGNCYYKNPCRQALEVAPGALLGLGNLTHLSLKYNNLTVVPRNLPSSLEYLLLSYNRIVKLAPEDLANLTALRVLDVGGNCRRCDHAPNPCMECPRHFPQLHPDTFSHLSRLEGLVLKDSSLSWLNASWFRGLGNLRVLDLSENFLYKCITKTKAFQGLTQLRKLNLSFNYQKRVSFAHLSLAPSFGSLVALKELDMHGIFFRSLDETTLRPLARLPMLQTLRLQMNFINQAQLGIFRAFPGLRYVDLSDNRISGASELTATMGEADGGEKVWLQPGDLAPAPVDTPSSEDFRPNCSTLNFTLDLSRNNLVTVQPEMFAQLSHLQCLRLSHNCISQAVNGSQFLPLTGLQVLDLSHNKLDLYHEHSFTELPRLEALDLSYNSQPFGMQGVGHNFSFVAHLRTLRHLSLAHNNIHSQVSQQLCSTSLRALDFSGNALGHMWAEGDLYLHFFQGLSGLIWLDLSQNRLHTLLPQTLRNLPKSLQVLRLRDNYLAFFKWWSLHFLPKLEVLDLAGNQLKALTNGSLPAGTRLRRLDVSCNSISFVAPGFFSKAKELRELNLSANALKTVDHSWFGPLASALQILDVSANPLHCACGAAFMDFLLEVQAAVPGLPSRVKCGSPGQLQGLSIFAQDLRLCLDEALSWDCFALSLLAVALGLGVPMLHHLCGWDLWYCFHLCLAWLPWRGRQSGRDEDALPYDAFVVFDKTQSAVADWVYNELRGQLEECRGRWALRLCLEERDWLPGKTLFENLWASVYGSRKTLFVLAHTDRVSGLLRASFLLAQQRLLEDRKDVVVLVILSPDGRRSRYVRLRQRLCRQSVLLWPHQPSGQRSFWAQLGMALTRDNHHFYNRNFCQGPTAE
In short: as §1

| SMILES | IC50 (human TLR8) [nM] | IC50 (human TLR7) [nM] | IC50 (human TLR9) [nM] |
| --- | --- | --- | --- |
| Cc1cc(-c2[nH]c3ccc(OC4CCNCC4)cc3c2C(C)C)cn(C)c1=O [Example 11, 5-(3-isopropyl-5-(piperidin-4-yloxy)-1H-indol-2-yl)-1,3-dimethylpyridin-2(1H)-one] | 2.1 | 2.8 | 1920 |
| Cc1c(-c2[nH]c3ccc(OC4CCN(C(C)C)CC4)cc3c2C(C)C)cn(C)c(=O)c1C [Example 48, 5-(3-isopropyl-5-((1-isopropylpiperidin-4-yl)oxy)-1H-indol-2-yl)-1,3,4-trimethylpyridin-2(1H)-one] | 1 | 6.9 | 5040 |
| Cc1cc(-c2[nH]c3ccc(O[C@H]4CCCNC4)cc3c2C(C)C)cn2ncnc12 [Example 9, (S)-6-(3-isopropyl-5-(piperidin-3-yloxy)-1H-indol-2-yl)-8-methyl-[1,2,4]triazolo[1,5-a]pyridine] | 10.6 | 0.8 | 2270 |

Results, then the compound that gave them:

| IC50 (human TLR8) [nM] | IC50 (human TLR7) [nM] | IC50 (human TLR9) [nM] | SMILES |
| --- | --- | --- | --- |
| 12.8 | 111 | 1900 | COc1ccc(-c2[nH]c3ccc(OCC(=O)NCC4CCCCN4)cc3c2C(C)C)cc1OC (stereo not drawn) [Example 126, 2-((2-(3,4-dimethoxyphenyl)-3-isopropyl-1H-indol-5-yl)oxy)-N-(piperidin-2-ylmethyl)acetamide] |
| 2.4 | 5.6 | 733 | Cc1cc(-c2[nH]c3ccc(OC4CCN(CC(C)O)CC4)cc3c2C(C)C)cc(C)n1 (stereo not drawn) [Example 69, 1-(4-((2-(2,6-dimethylpyridin-4-yl)-3-isopropyl-1H-indol-5-yl)oxy)piperidin-1-yl) propan-2-ol] |
